# According to patent publication US9115117B2, “Substituted piperidine compounds and their use as orexin receptor modulators” (JANSSEN PHARMACEUTICA NV, priority 2013, dated 2015):
# Assays:
# [1] = molecular target: human orexin 2 receptor (Homo sapiens (Human), UniProt O43614); assay: Human orexin 2 receptor radioligand binding ([3H]-EMPA); conditions: HEK293 stably expressing human orexin 2 receptor; [3H]-EMPA; apparent Ki; read-out: hOX2 Ki
# Method: After centrifugation (2K×G, 5 min at 4° C.), the supernatant was aspirated and the pellets frozen and stored at −80° C. […] Each cell pellet from a 15 cm plate was resuspended in 10 mL, stored on ice, and homogenized for 45 sec just prior to addition to the reactions. Competition binding experiments in 96 well polypropylene plates were performed using [^3H]-EMPA (Moraveck Corporation, specific activity=29.6 Ci/mmol), diluted to a 5 nM concentration in PBS (2 nM final concentration). […] The final concentration of DMSO in the reactions is equal to or less than 0.1%. Total and nonspecific binding was determined in the absence and presence of […]. The total volume of each reaction is 200 μL (20 μL of diluted compounds, 80 μL of [^3H]-EMPA diluted in PBS and 100 μL of the cell suspension).
# The plates were washed 3 times by aspirating 30 ml PBS through the plates. Plates were dried in 55° C. oven for 60 min, scintillation fluid was added, and the radioactivity was counted on a Topcount (Packard).
# [2] = molecular target: rat orexin 1 receptor (Rattus norvegicus, UniProt P56718); assay: Rat orexin 1 receptor radioligand binding; conditions: HEK293 cells stably expressing rat orexin 1 receptor; apparent Ki; read-out: rOX1 Ki
# Method: After centrifugation (2K×G, 5 min at 4° C.), the supernatant was aspirated and the pellets frozen and stored at −80° C. […] Each cell pellet from a 15 cm plate was resuspended in 10 mL, stored on ice, and homogenized for 45 sec prior to addition to the reactions. Competition binding experiments in 96 well polypropylene plates were performed using [^3H]-(1-(5-(2-fluoro-phenyl)-2-methyl-thiazol-4-yl)-1-((S)-2-(5-phenyl-(1,3,4)oxadiazol-2-ylmethyl)-pyrrolidin-1-yl)-methanone) (Moraveck Corporation, specific activity=35.3 Ci/mmol), diluted to a 10 nM concentration in PBS (4 nM final). […] The final concentration of DMSO in the reactions is equal to or less than 0.1%. Total and nonspecific binding was determined in the absence and presence of 10 μM almorexant. The total volume of each reaction is 200 μL (20 μL of diluted compounds, 80 μL of [3H]-(1-(5-(2-fluoro-phenyl)-2-methyl-thiazol-4-yl)-1-((S)-2-(5-phenyl-(1,3,4)oxadiazol-2-ylmethyl)-pyrrolidin-1-yl)-methanone) diluted in PBS and 100 μL of the cell suspension). […] The plates were washed 3 times by aspirating 30 ml PBS through the plates. Plates were dried in 55° C. oven for 60 min, scintillation fluid was added, and the radioactivity was counted on a Topcount (Packard).
# human orexin 2 receptor, sequence (O43614 whole entry): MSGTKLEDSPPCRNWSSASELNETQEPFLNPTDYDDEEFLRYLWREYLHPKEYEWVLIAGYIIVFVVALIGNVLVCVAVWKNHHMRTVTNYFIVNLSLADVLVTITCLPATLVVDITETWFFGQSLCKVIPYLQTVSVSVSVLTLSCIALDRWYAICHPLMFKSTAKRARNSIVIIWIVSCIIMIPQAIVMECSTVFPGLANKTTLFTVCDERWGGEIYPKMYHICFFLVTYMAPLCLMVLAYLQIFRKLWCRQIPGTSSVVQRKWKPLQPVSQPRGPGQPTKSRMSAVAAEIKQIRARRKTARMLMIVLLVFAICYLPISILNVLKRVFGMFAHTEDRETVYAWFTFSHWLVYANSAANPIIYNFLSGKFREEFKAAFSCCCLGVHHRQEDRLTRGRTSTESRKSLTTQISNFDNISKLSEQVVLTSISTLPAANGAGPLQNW
SMILES,Ki [1] [nM],Ki [2] [nM]
"C[C@H]1[C@H](Nc2ccc(C(F)(F)F)cn2)CCCN1C(=O)c1ncccc1-n1nccn1 (racemic) [Example 21, (±)-trans-(3-(2H-1,2,3-triazol-2-yl)pyridin-2-yl)(2-methyl-3-((5-(trifluoromethyl)pyridin-2-yl)amino)piperidin-1-yl)methanone]",595,
"C[C@H]1[C@H](Nc2ccc(Cl)cn2)CCCN1C(=O)c1ccccc1-n1nccn1 (racemic) [Example 32, (±)-trans-(2-(2H-1,2,3-triazol-2-yl)phenyl)(3-((5-chloropyridin-2-yl)amino)-2-methylpiperidin-1-yl)methanone]",286,
"C[C@H]1[C@H](Nc2ccccn2)CCCN1C(=O)c1ccccc1-n1nccn1 (racemic) [Example 36, (±)-trans-(2-(2H-1,2,3-triazol-2-yl)phenyl)(2-methyl-3-(pyridin-2-ylamino)piperidin-1-yl)methanone]",1500,690
"C[C@H]1[C@H](Nc2ncc3ccccc3n2)CCCN1C(=O)c1ccccc1-n1nccn1 (racemic) [Example 39, (±)-trans-(2-(2H-1,2,3-triazol-2-yl)phenyl)(2-methyl-3-(quinazolin-2-ylamino)piperidin-1-yl)methanone]",189,
"COc1c(F)cccc1C(=O)N1CCC[C@@H](Nc2nc3cc(Cl)ccc3o2)[C@@H]1C (racemic) [Example 47, (±)-trans-(3-((5-chlorobenzo[d]oxazol-2-yl)amino)-2-methylpiperidin-1-yl)(3-fluoro-2-methoxyphenyl)methanone]",1300,373
"COc1c(F)cccc1C(=O)N1CCC[C@@H](Nc2cnc3ccccc3n2)[C@@H]1C (racemic) [Example 50, (±)-trans-(3-fluoro-2-methoxyphenyl)(2-methyl-3-(quinoxalin-2-ylamino)piperidin-1-yl)methanone]",353,396
"C[C@H]1[C@H](Nc2nccc(-c3ccccc3)n2)CCCN1C(=O)c1ccccc1-n1nccn1 (racemic) [Example 51, (±)-trans-(2-(2H-1,2,3-triazol-2-yl)phenyl)(2-methyl-3-((4-phenylpyrimidin-2-yl)amino)piperidin-1-yl)methanone]",2100,
"CCOc1ccccc1C(=O)N1CCC[C@@H](Nc2nccc(-c3ccccc3)n2)[C@@H]1C (racemic) [Example 53, (±)-trans-(2-ethoxyphenyl)(2-methyl-3-((4-phenylpyrimidin-2-yl)amino)piperidin-1-yl)methanone]",58,
"COc1c(F)cccc1C(=O)N1CCC[C@@H](Nc2ccc(C(F)(F)F)cn2)[C@H]1C (racemic) [Example 54, (±)-cis-(3-fluoro-2-methoxyphenyl)(2-methyl-3-((5-(trifluoromethyl)pyridin-2-yl)amino)piperidin-1-yl)methanone]",> 10000,4500
"CCOc1ccccc1C(=O)N1CCC[C@@H](Nc2ccc(C(F)(F)F)cn2)[C@H]1C (racemic) [Example 55, (±)-cis-(2-ethoxyphenyl)(2-methyl-3-((5-(trifluoromethyl)pyridin-2-yl)amino)piperidin-1-yl)methanone]",> 10000,1200
"C[C@@H]1[C@H](Nc2cnc3ccccc3n2)CCCN1C(=O)c1ccccc1-n1nccn1 (racemic) [Example 63, (±)-cis-(2-(2H-1,2,3-triazol-2-yl)phenyl)(2-methyl-3-(quinoxalin-2-ylamino)piperidin-1-yl)methanone]",> 10000,
"C[C@@H]1[C@H](Nc2nccc(-c3ccccc3)n2)CCCN1C(=O)c1ccccc1-n1nccn1 (racemic) [Example 66, (±)-cis-(2-(2H-1,2,3-triazol-2-yl)phenyl)(2-methyl-3-((4-phenylpyrimidin-2-yl)amino)piperidin-1-yl)methanone]",1800,
"C[C@H]1[C@H](Nc2ccc(Cl)cn2)CCCN1C(=O)c1ccccc1-n1nccn1 [Example 100, (2-(2H-1,2,3-triazol-2-yl)phenyl)((2S,3R)-3-((5-chloropyridin-2-yl)amino)-2-methylpiperidin-1-yl)methanone]",207,

# Second part, the compound after the results:
Ki [1] [nM],Ki [2] [nM],SMILES
228,,"Cc1ccc(-c2ncccn2)c(C(=O)N2CCC[C@@H](Nc3cc(C)nc(C(F)(F)F)n3)[C@@H]2C)c1 (racemic) [Example 7, (±)-trans-(5-methyl-2-(pyrimidin-2-yl)phenyl)(2-methyl-3-((6-methyl-2-(trifluoromethyl)pyrimidin-4-yl)amino)piperidin-1-yl)methanone]"
680,,"CCOc1ccc(C)nc1C(=O)N1CCC[C@@H](Nc2ccc(C(F)(F)F)cn2)[C@@H]1C (racemic) [Example 16, (±)-trans-(3-ethoxy-6-methylpyridin-2-yl)(2-methyl-3-((5-(trifluoromethyl)pyridin-2-yl)amino)piperidin-1-yl)methanone]"
324,,"C[C@H]1[C@H](Nc2ccc(C(F)(F)F)cn2)CCCN1C(=O)c1cc(F)ccc1-n1nccn1 (racemic) [Example 24, (±)-trans-(5-fluoro-2-(2H-1,2,3-triazol-2-yl)phenyl)(2-methyl-3-((5-(trifluoromethyl)pyridin-2-yl)amino)piperidin-1-yl)methanone]"
3900,496,"COc1c(F)cccc1C(=O)N1CCC[C@@H](Nc2ccc(C(F)(F)F)cn2)[C@@H]1C (racemic) [Example 28, (±)-trans-(3-fluoro-2-methoxyphenyl)(2-methyl-3-((5-(trifluoromethyl)pyridin-2-yl)amino)piperidin-1-yl)methanone]"
508,,"Cc1cnc(N[C@@H]2CCCN(C(=O)c3ccccc3-n3nccn3)[C@H]2C)nc1 (racemic) [Example 31, (±)-trans-(2-(2H-1,2,3-triazol-2-yl)phenyl)(2-methyl-3-((5-methylpyrimidin-2-yl)amino)piperidin-1-yl)methanone]"
822,870,"C[C@H]1[C@H](Nc2ncc(F)cn2)CCCN1C(=O)c1ccccc1-n1nccn1 (racemic) [Example 40, (±)-trans-(2-(2H-1,2,3-triazol-2-yl)phenyl)(3-((5-fluoropyrimidin-2-yl)amino)-2-methylpiperidin-1-yl)methanone]"
489,,"CCOc1ccccc1C(=O)N1CCC[C@@H](Nc2nc3cc(Cl)ccc3o2)[C@@H]1C (racemic) [Example 46, (±)-trans-(3-((5-chlorobenzo[d]oxazol-2-yl)amino)-2-methylpiperidin-1-yl)(2-ethoxyphenyl)methanone]"
96,,"C[C@H]1[C@H](Nc2cnc3ccccc3n2)CCCN1C(=O)c1ccccc1-n1nccn1 (racemic) [Example 48, (±)-trans-(2-(2H-1,2,3-triazol-2-yl)phenyl)(2-methyl-3-(quinoxalin-2-ylamino)piperidin-1-yl)methanone]"
2700,,"COc1c(F)cccc1C(=O)N1CCC[C@@H](Nc2nccc(-c3ccccc3)n2)[C@@H]1C (racemic) [Example 52, (±)-trans-(3-fluoro-2-methoxyphenyl)(2-methyl-3-((4-phenylpyrimidin-2-yl)amino)piperidin-1-yl)methanone]"
> 10000,1800,"CCOc1ccccc1C(=O)N1CCC[C@@H](Nc2ccc(Br)cn2)[C@H]1C (racemic) [Example 59, (±)-cis-(3-(5-bromopyridin-2-yl)amino)-2-methylpiperidin-1-yl)(2-ethoxyphenyl)methanone]"
> 10000,> 10000,"C[C@@H]1[C@H](Nc2nc3cc(Cl)ccc3o2)CCCN1C(=O)c1ccccc1-n1nccn1 (racemic) [Example 60, (±)-cis-((2-(2H-1,2,3-triazol-2-yl)phenyl)(3-((5-chlorobenzo[d]oxazol-2-yl)amino)-2-methylpiperidin-1-yl)methanone]"
2500,,"CCOc1ccccc1C(=O)N1CCC[C@@H](Nc2nc3cc(Cl)ccc3o2)[C@H]1C (racemic) [Example 61, (±)-cis-(3-((5-chlorobenzo[d]oxazol-2-yl)amino)-2-methylpiperidin-1-yl)(2-ethoxyphenyl)methanone]"
> 10000,,"COc1c(F)cccc1C(=O)N1CCC[C@@H](Nc2nccc(-c3ccccc3)n2)[C@H]1C (racemic) [Example 67, (±)-cis-(3-fluoro-2-methoxyphenyl)(2-methyl-3-((4-phenylpyrimidin-2-yl)amino)piperidin-1-yl)methanone]"
> 10000,,"CCOc1ccccc1C(=O)N1CCC[C@@H](Nc2nccc(-c3ccccc3)n2)[C@H]1C (racemic) [Example 68, (±)-cis-(2-ethoxyphenyl)(2-methyl-3-((4-phenylpyrimidin-2-yl)amino)piperidin-1-yl)methanone]"
